From US6784137B2, “6-aryl-4-aminopicolinates and their use as herbicides” (Dow AgroSciences LLC, priority 2001, dated 2004)

melting point	Structure (SMILES)
185 to 187 °C	COC(=O)c1nc(-c2ccnc(OC)c2)cc(N)c1Cl [Compound 107, Methyl 4-amino-3-chloro-6-(6-methoxy-4-pyridinyl)pyridine-2-carboxylate]
174 to 176 °C	COC(=O)c1nc(-c2cnn(C)c2)cc(N)c1Cl [Compound 124, Methyl 4-amino-3-chloro-6-(1-methyl-1H-pyrazol-4-yl)pyridine-2-carboxylate]
155 to 156 °C	COC(=O)c1nc(-c2ccc(Cl)c(C)c2)cc(N)c1Cl [Compound 38, Methyl 4-amino-3-chloro-6-(4-chloro-3-methylphenyl)pyridine-2-carboxylate]
115 to 117 °C	COC(=O)c1nc(-c2ccccc2Cl)cc(N)c1Cl [Compound 26, Methyl 4-amino-3-chloro-6-(2-chlorophenyl)pyridine-2-carboxylate]
88 to 89 °C	CCOC(=O)c1nc(-c2ccc(Cl)cc2)c(F)c(N)c1Cl [Compound 252, Ethyl 4-amino-3-chloro-5-fluoro-6-(4-chlorophenyl)pyridine-2-carboxylate]
155 °C (dec.)	Nc1cc(-c2ccncc2)nc(C(=O)O)c1Cl [Compound 209, 4-Amino-3-chloro-6-(4-pyridinyl)pyridine-2-carboxylic acid]
218 to 220 °C	Nc1cc(-c2ccc3c(c2)CCO3)nc(C(=O)O)c1Cl [Compound 201, 4-Amino-3-chloro-6-(2,3-dihydro-5-benzofuranyl)pyridine-2-carboxylic acid]
126 to 127 °C	COC(=O)c1nc(-c2ccc(OC)c(OC)c2)cc(N)c1Cl [Compound 64, Methyl 4-amino-3-chloro-6-(3,4-dimethoxyphenyl)pyridine-2-carboxylate]
116 to 117 °C	COC(=O)c1nc(-c2ccco2)c(Cl)c(N)c1Cl [Compound 104, Methyl 4-amino-3,5-dichloro-6-(2-furanyl)pyridine-2-carboxylate]
139 to 140 °C (dec.)	COc1ccc(-c2nc(C(=O)O)c(Cl)c(N)c2Cl)cc1 [Compound 134, 4-Amino-3,5-dichloro-6-(4-methoxyphenyl)pyridine-2-carboxylic acid]
178 to 185 °C	COC(=O)c1nc(-c2cncnc2)cc(NC(C)=O)c1Cl [Compound 117, Methyl 4-acetamido-3-chloro-6-(5-pyrimidinyl)pyridine-2-carboxylate]
166 to 170 °C	COC(=O)c1nc(-c2cnco2)cc(N)c1Cl [Compound 7, methyl 4-amino-3-chloro-6-(5-oxazolyl)pyridine-2-carboxylate]
143 °C	COC(=O)c1nc(-c2c(C)noc2C)cc(N)c1Cl [Compound 100, Methyl 4-amino-3-chloro-6-(3,5-dimethyl-4-isoxazolyl)pyridine-2-carboxylate]
138 to 139 °C	COC(=O)c1nc(-c2ccc(CO)cc2)cc(N)c1Cl [Compound 242, Methyl 4-amino-3-chloro-6-(4-hydroxymethylphenyl)pyridine-2-carboxylate]
153 °C	COc1ncc(-c2cc(N)c(Cl)c(C(=O)O)n2)cn1 [Compound 239, 4-Amino-3-chloro-6-(2-methoxy-5-pyrimidinyl)pyridine-2-carboxylic acid]
121 to 122 °C	COC(=O)c1nc(-c2ccccc2F)cc(N)c1Cl [Compound 37, Methyl 4-amino-3-chloro-6-(2-fluorophenyl)pyridine-2-carboxylate]
206 °C (dec.)	Nc1cc(-c2ccc(F)cc2F)nc(C(=O)O)c1Cl [Compound 145, 4-Amino-3-chloro-6-(2,4-difluorophenyl)pyridine-2-carboxylic acid]
182 to 183 °C	COc1ccc(-c2cc(N)c(Cl)c(C(=O)O)n2)cc1OC [Compound 185, 4-Amino-3-chloro-6-(3,4-dimethoxyphenyl)pyridine-2-carboxylic acid]
191 to 192 °C	COC(=O)c1nc(-c2cc(Br)ccc2OC)cc(N)c1Cl [Compound 32, Methyl 4-amino-3-chloro-6-(5-bromo-2-methoxyphenyl)pyridine-2-carboxylate]
156 to 157 °C	Nc1cc(-c2ccc(CF)cc2)nc(C(=O)O)c1Cl [Compound 160, 4-Amino-3-chloro-6-[4-(fluoromethyl)phenyl]pyridine-2-carboxylic acid]
120 to 122 °C	COCc1cc(-c2cc(NC(C)=O)c(Cl)c(C(=O)OC)n2)ccc1Cl [Compound 70, Methyl 4-acetamido-3-chloro-6-(4-chloro-3-methoxymethylphenyl)pyridine-2-carboxylate]
156 to 157 °C	COC(=O)c1nc(-c2c(F)cccc2F)cc(NC(C)=O)c1Cl [Compound 55, Methyl 4-acetamido-3-chloro-6-(2,6-difluorophenyl)pyridine-2-carboxylate]
182 to 183 °C	COc1cc(Cl)ccc1-c1cc(N)c(Cl)c(C(=O)O)n1 [Compound 186, 4-Amino-3-chloro-6-(4-chloro-2-methoxyphenyl)pyridine-2-carboxylic acid]
162 °C	COCc1cc(-c2cc(N)c(Cl)c(C(=O)O)n2)ccc1Cl [Compound 195, 4-Amino-3-chloro-6-(4-chloro-3-methoxymethylphenyl)pyridine-2-carboxylic acid]

melting point	Structure (SMILES)
172 to 173 °C	Nc1cc(-c2cnccn2)nc(C(=O)O)c1Cl [Compound 220, 4-Amino-3-chloro-6-(2-pyrazinyl)pyridine-2-carboxylic acid]
71 to 72 °C	Cc1ccc(-c2cc(N)c(Cl)c(C(=O)O)n2)c(Cl)c1 [Compound 190, 4-Amino-3-chloro-6-(2-chloro-4-methylphenyl)pyridine-2-carboxylic acid]
131 °C	COc1ccc(-c2cc(N)c(Cl)c(C(=O)O)n2)cc1C [Compound 193, 4-Amino-3-chloro-6-(4-methoxy-3-methylphenyl)pyridine-2-carboxylic acid]
177 to 178 °C	CC(=O)c1ccc(-c2cc(N)c(Cl)c(C(=O)O)n2)cc1 [Compound 144, 4-Amino-3-chloro-6-(4-acetylphenyl)pyridine-2-carboxylic acid]
132 to 134 °C	COC(=O)c1nc(-c2ccc3c(c2)CCC3)cc(NC(C)=O)c1Cl [Compound 74, Methyl 4-acetamido-3-chloro-6-(5-indanyl)pyridine-2-carboxylate]
182 to 183 °C	COC(=O)c1nc(-c2cc3ccccc3o2)cc(N)c1Cl [Compound 96, Methyl 4-amino-3-chloro-6-(2-benzofuranyl)pyridine-2-carboxylate]
165 to 166 °C	COC(=O)c1nc(-c2ccc3c(c2)CCC3)cc(N)c1Cl [Compound 75, Methyl 4-amino-3-chloro-6-(5-indanyl)pyridine-2-carboxylate]
144 to 146 °C	COC(=O)c1nc(-c2cccnc2)cc(N)c1Cl [Compound 102, Methyl 4-amino-3-chloro-6-(3-pyridyl)pyridine-2-carboxylate]
180 to 181 °C (dec.)	Nc1cc(-c2ccccc2)nc(C(=O)O)c1Cl [Compound 135, 4-Amino-3-chloro-6-(phenyl)pyridine-2-carboxylic acid]
184 to 185 °C	COC(=O)c1nc(-c2cc3ccccc3s2)cc(NC(C)=O)c1Cl [Compound 97, Methyl 4-acetamido-3-chloro-6-(2-benzothienyl)pyridine-2-carboxylate]
125 °C (dec.)	Nc1c(F)c(-c2ccc(Cl)nc2)nc(C(=O)O)c1Cl [Compound 221, 4-Amino-3-chloro-5-fluoro-6-(6-chloro-3-pyridinyl)pyridine-2-carboxylic acid]
135 °C	Nc1c(Cl)c(C(=O)O)nc(-c2ccccc2)c1Cl [Compound 133, 4-Amino-3,5-dichloro-6-(phenyl)pyridine-2-carboxylic acid]
230 to 232 °C	Cn1nccc1-c1cc(N)c(Cl)c(C(=O)O)n1 [Compound 223, 4-Amino-3-chloro-6-(1-methyl-1H-pyrazol-5-yl)pyridine-2-carboxylic acid]
185 °C (dec.)	Nc1cc(-c2ccccn2)nc(C(=O)O)c1Cl [Compound 214, 4-Amino-3-chloro-6-(2-pyridinyl)pyridine-2-carboxylic acid]
108 to 110 °C	COC(=O)c1nc(-c2cc(Cl)c(C)cc2F)cc(N)c1Cl [Compound 79, Methyl 4-amino-3-chloro-6-(5-chloro-2-fluoro-4-methylphenyl)pyridine-2-carboxylate]
181 to 182 °C	Nc1cc(-c2ccc(CO)cc2)nc(C(=O)O)c1Cl [Compound 159, 4-Amino-3-chloro-6-(4-hydroxymethylphenyl)pyridine-2-carboxylic acid]
156 to 157 °C	COC(=O)c1nc(-c2ccc(Cl)c(F)c2)cc(NC(C)=O)c1Cl [Compound 60, Methyl 4-acetamido-3-chloro-6-(4-chloro-3-fluorophenyl)pyridine-2-carboxylate]
170 to 171 °C	Nc1cc(-c2ccc(F)cc2)nc(C(=O)O)c1Cl [Compound 156, 4-Amino-3-chloro-6-(4-fluorophenyl)pyridine-2-carboxylic acid]
251 to 252 °C	COC(=O)c1nc(-c2ccc(O)nc2)cc(N)c1Cl [Compound 108, Methyl 4-amino-3-chloro-6-(6-hydroxy-3-pyridinyl)pyridine-2-carboxylate]
250 to 252 °C	COC(=O)c1nc(-c2nnn(C)n2)cc(N)c1Cl [Compound 11, Methyl 4-amino-3-chloro-6-(2-methyl-2H-tetrazol-5-yl)pyridine-2-carboxylate]
146 to 148 °C	COC(=O)c1nc(-c2ccc(C(C)=O)cc2)cc(N)c1Cl [Compound 31, Methyl 4-amino-3-chloro-6-(4-acetylphenyl)pyridine-2-carboxylate]
73 to 74 °C	COCc1cc(-c2cc(N)c(Cl)c(C(=O)OC)n2)ccc1Cl [Compound 71, Methyl 4-amino-3-chloro-6-(4-chloro-3-methoxymethylphenyl)pyridine-2-carboxylate]
133 °C	COC(=O)c1nc(-c2ccsc2)cc(NC(C)=O)c1Cl [Compound 101, Methyl 4-acetamido-3-chloro-6-(3-thienyl)pyridine-2-carboxylate]
